Values quoted from earlier work as cited in publication PMC5111556 (Organic & biomolecular chemistry, 2016).

System: αvβ3

Substance: Cilengitide
- αvβ3-targeted antiangiogenic therapy (in words): initial promise
